From article PMC11785708, “Design and synthesis of new quinazolinone derivatives: investigation of antimicrobial and biofilm inhibition effects” (Molecular Diversity, 2024)
Values after ≈ are worked out from the molar mass of the structure shown. Values joined by “and” are separate entries in the source; they are usually repeats but may differ in a detail not shown here. Equal entries are not always repeated.

Tests used:
S. aureus ATCC 6538 [1] = experiment: Agar well diffusion, S. aureus; type: cell-based; conditions: Staphylococcus aureus, ATCC6538; 100 μl of test compound 20 mg/ml in DMF; ciprofloxacin and fluconazole 30 μg/ml; 24 h; mean ± SD; read-out: diameters of inhibition zone, S. aureus ATCC 6538
Procedure: (§1) The antimicrobial activity was tested against Gram positive bacteria: Bacillus cereus (B. cereus ATCC 6629), Bacillus subtilis (B. subtilis ATCC 6633), Staphylococcus aureus (S. aureus ATCC 6538), Gram negative bacteria: Klebsiella pneumoniae (K. pneumoniae ATCC 13883), Pseudomonas aeruginosa (P. aeruginosa ATCC 27953) and Candida albicans (C. albicans ATCC 10231). Glycerol stocks were thawed upon need and propagated into nutrient broth at 37 °C. The antibacterial activity of the compounds 9-32 was carried out in vitro using the agar well diffusion method, originally reported by […] and Bauer and coworkers and described by the National Committee for Clinical Laboratory Standards (NCCLS). Bacterial strains, adjusted at […] (equivalent to 0.5 McFarland), were used to inoculate nutrient agar plates. 9-mm diameter wells were punched into the solidified nutrient agar plates using sterile cork borer and 100 μl samples of the test compounds, dissolved in dimethyl formamide (DMF) at 20 mg/ml concentrations, were added and allowed to diffuse at 4 °C for 2 h. Subsequently, the plates were incubated overnight in an upright position at 37 °C. DMF was used as a negative control while ciprofloxacin and fluconazole (30 μg/ml) served as positive controls. After 24 h incubation, the diameters of the growth inhibition zones were recorded in mm. Data was expressed as mean ± standard deviation of three replicates.

B. subtilis ATCC 6633 [2] = experiment: Agar well diffusion, B. subtilis; type: cell-based; conditions: Bacillus subtilis, ATCC6633; 100 μl of test compound 20 mg/ml in DMF; ciprofloxacin and fluconazole 30 μg/ml; 24 h; mean ± SD; read-out: diameters of inhibition zone, B. subtilis ATCC 6633
Procedure: as §1

B. cereus ATCC 6629 [3] = experiment: Agar well diffusion, B. cereus; type: cell-based; conditions: Bacillus cereus, ATCC6629; 100 μl of test compound 20 mg/ml in DMF; ciprofloxacin and fluconazole 30 μg/ml; 24 h; mean ± SD; read-out: diameters of inhibition zone, B. cereus ATCC 6629
Procedure: as §1

K. pneumoniae ATCC 13883 [4] = experiment: Agar well diffusion, K. pneumoniae; type: cell-based; conditions: Klebsiella pneumoniae, ATCC13883; 100 μl of test compound 20 mg/ml in DMF; ciprofloxacin and fluconazole 30 μg/ml; 24 h; mean ± SD; read-out: diameters of inhibition zone, K. pneumoniae ATCC 13883
Procedure: as §1

P. aeruginosa ATCC 27953 [5] = experiment: Agar well diffusion, P. aeruginosa; type: cell-based; conditions: Pseudomonas aeruginosa, ATCC27953; 100 μl of test compound 20 mg/ml in DMF; ciprofloxacin and fluconazole 30 μg/ml; 24 h; mean ± SD; read-out: diameters of inhibition zone, P. aeruginosa ATCC 27953
Procedure: as §1

P. aeruginosa ATCC 27953 [6] = experiment: Inhibition of exopolysaccharide (EPS) production; type: cell-based, Pseudomonas aeruginosa; conditions: means ± standard errors
Procedure: The inhibition of exopolysaccharide production by P. aeruginosa ATCC 27953 using quinazolinone derivatives was assessed according to total carbohydrate measurement.
P. aeruginosa’s biofilm was grown in the presence or absence of compounds (19, 20). Cells were incubated for 1 h with an equal volume of 5% (v/v) phenol and 5 × volume of concentrated sulfuric acid containing 0.2% (w/v) hydrazine sulphate then centrifuged at 10,000 g for 10 min (Z 326 K, HERMLE Labortechnik GmbH, Wehingen, Germany). The optical density of the supernatant was measured at 490 nm and the reduction in EPS was calculated as follows: EPSquantification%=OD490ofcontrol-OD490oftest/OD490ofcontrol×100

C. albicans ATCC 10231 [7] = experiment: Agar well diffusion, C. albicans; type: cell-based; conditions: Candida albicans, ATCC10231; 100 μl of test compound 20 mg/ml in DMF; ciprofloxacin and fluconazole 30 μg/ml; 24 h; mean ± SD; read-out: diameters of inhibition zone, C. albicans ATCC 10231
Procedure: as §1

S. aureus ATCC 6538 [8] = experiment: MIC determination, S. aureus; type: cell-based, Staphylococcus aureus; conditions: serial dilutions, triplicate; for MIC: Staphylococcus aureus, ATCC6538
Procedure: (§2) Serial dilutions of the test compounds were tested to determine their MIC against the most susceptible organisms. The MIC was expressed as the lowest concentration which inhibited the visible growth of the corresponding microorganism. All assays were performed in triplicate.

B. subtilis ATCC 6633 [9] = experiment: MIC determination, B. subtilis; type: cell-based, Bacillus subtilis; conditions: Bacillus subtilis, ATCC6633; serial dilutions, triplicate
Procedure: as §2

K. pneumoniae ATCC 13883 [10] = experiment: MIC determination, K. pneumoniae; type: cell-based, Klebsiella pneumoniae; conditions: Klebsiella pneumoniae, ATCC13883; serial dilutions, triplicate
Procedure: as §2

C. albicans ATCC 10231 [11] = experiment: MIC determination, C. albicans; type: cell-based, Candida albicans; conditions: serial dilutions, triplicate; for MIC: Candida albicans, ATCC10231
Procedure: as §2

Cell viability MTT assay = type: cell-based; conditions: human, BJ1 cells (normal skin fibroblasts)
Procedure: Cell viability testing at 5 mg/ml was carried out by colorimetric MTT assay on human normal cell line BJ1 (skin fibroblasts) to investigate the toxicity of the most broad spectrum derivatives 9, 15, 16, 18, 19, 20 and 29 (Table 3). The viability of the cells treated with the aforementioned derivatives was more than 87% at 5 mg/ml concentration. This gives indication that the compounds are tolerated and nontoxic for human cells, as the cytotoxic dose was higher than the therapeutic dose on most of microorganisms. It is worth mentioning that the safe limit of the percent of dead cells is not an absolute value and could be more than 10% as reported in previous studies.
The most broad spectrum compounds were evaluated for their cytotoxic activity against BJ1 cell line using colorimetric MTT [3-(4,5-dimethylthiazol-2-yl)-2,5-diphenyltetrazolium bromide] assay.

B. cereus ATCC 6629 [12] = experiment: MIC determination, B. cereus; type: cell-based, Bacillus cereus; conditions: Bacillus cereus, ATCC6629; serial dilutions, triplicate
Procedure: as §2

P. aeruginosa ATCC 27953 [13] = experiment: MIC determination, P. aeruginosa; type: cell-based, Pseudomonas aeruginosa; conditions: serial dilutions, triplicate; for MIC: Pseudomonas aeruginosa, ATCC27953
Procedure: as §2

P. aeruginosa ATCC 27953 [14] = experiment: Biofilm inhibition assay (crystal violet); type: cell-based; conditions: Pseudomonas aeruginosa, ATCC27953, P. aeruginosa ATCC 27953, 24 h
Procedure: Compounds with potential activity against P. aeruginosa ATCC 27953 were tested for the respective biofilm inhibition. The assay was carried out in microtiter plate setup using crystal violet (CV) staining of adherent cells, as modified from.
After 24 h cultivation, the supernatant and planktonic cells were discarded, wells were washed with phosphate buffered saline (PBS) and biofilms were stained with 0.1% CV. CV was subsequently washed then, solubilized with 33% (v/v) glacial acetic acid. The absorbance was measured at 540 nm using SPECTROstar® Nano microplate reader (BMG LABTECH GmbH, Germany). The experiments were performed in triplicate and independently repeated three times. GraphPad Prism 6.0 software was used to estimate the IC50 values, which correspond to […].

P. aeruginosa ATCC 27953 [15] = experiment: Bacterial cell surface hydrophobicity (CSH) assay (MATH / BATH); type: cell-based, Pseudomonas aeruginosa; conditions: increasing concentrations, toluene partition (Fig. 6)
Procedure: The effect of the test compounds 19 and 20 on cell surface hydrophobicity was investigated via the microbial or bacterial adherence to hydrocarbons (MATH / BATH) assay. Exponentially growing culture of P. aeruginosa ATCC 27953 incubated with or without test compounds were centrifuged, the pellets were re-suspended and OD600 was measured using UV/Vis spectrophotometer (Jasco V-630, Tokyo, Japan) to give Ao. The re-suspended cells were vigorously mixed with toluene followed by measuring the OD600 of the aqueous phase to give At. The hydrophobicity index was calculated as follows: Hydrophobicityindex=Ao-At/Ao×100

[16] = system: Pseudomonas aeruginosa ATCC 27953; experiment: Twitching motility assay; type: cell-based; conditions: highest tested concentration (= MIC)
Procedure: 5 µL of overnight-grown bacteria were stab-inoculated into Luria Bertani (LB) soft or quasi-solid plates containing 0.3% agar mixed with different concentrations of compounds 19, 20 and further incubated overnight in an upright position. The visible detectable distance of corrugated trails of twitching zones, away from the inoculation center at the petri dish-agar interface, was measured afterwards. The results were recorded as the average of several diameters’ measurements. DMF was used as a negative control. The experiments were performed in triplicate and represented as the mean of three measurements.

SMILES	zone of inhibition at 20000 µg/mL (S. aureus ATCC 6538 [1]) [mm]	zone of inhibition at 20000 µg/mL (B. subtilis ATCC 6633 [2]) [mm]	zone of inhibition at 20000 µg/mL (B. cereus ATCC 6629 [3]) [mm]	zone of inhibition at 20000 µg/mL (K. pneumoniae ATCC 13883 [4]) [mm]	zone of inhibition at 20000 µg/mL (P. aeruginosa ATCC 27953 [5]) [mm]	% EPS inhibition (P. aeruginosa ATCC 27953 [6]; 1/4 MIC) [%]	% EPS inhibition (P. aeruginosa ATCC 27953 [6]; 1 MIC) [%]	% EPS inhibition (P. aeruginosa ATCC 27953 [6]; 2 MIC) [%]	zone of inhibition at 20000 µg/mL (C. albicans ATCC 10231 [7]) [mm]	MIC (S. aureus ATCC 6538 [8]) [µg/mL]	MIC (B. subtilis ATCC 6633 [9]) [µg/mL]	MIC (K. pneumoniae ATCC 13883 [10]) [µg/mL]	MIC (C. albicans ATCC 10231 [11]) [µg/mL]	viability at 5 mg/ml (Cell viability MTT assay) [%]	melting point [°C]	MIC (B. cereus ATCC 6629 [12]) [µg/mL]	MIC (P. aeruginosa ATCC 27953 [13]) [µg/mL]	further results
O=C(O)c1cn(C2CC2)c2cc(N3CCNCC3)c(F)cc2c1=O [Ciprofloxacin, reference compound]	23 ± 0.15	33 ± 0.2	29 ± 0.18	26 ± 0.17	35 ± 0.28	1.46 ± 0.28	8.98 ± 0.52	16.54 ± 0.61	–	–	–	–	–	–	–	–	–	% EPS inhibition (P. aeruginosa ATCC 27953 [6]; 2 MIC, listed as ciprofloxacin): ~ 16%
O=c1c2ccccc2nc(CN2CCCC2)n1N=Cc1ccccc1 [Compound 15, 3-(Benzylideneamino)-2-(pyrrolidin-1-ylmethyl)quinazolin-4(3H)-one]	12 ± 0.26	10 ± 0.33	–	13 ± 0.41	–	–	–	–	11 ± 0.11	2000 ± 290 (≈ 6.02 mM)	2000 ± 290 (≈ 6.02 mM)	2000 (≈ 6.02 mM)	5000 (≈ 15 mM)	88.4 ± 0.91	108 to 110	–	–	MIC, C. albicans ATCC 10231 (C. albicans ATCC 10231 [11]): 5000 ± 290 µg/mL (≈ 15 mM)
O=c1c2ccccc2nc(CN2CCCC2)n1N=Cc1ccc(Cl)cc1 [Compound 16, 3-[(4-Chlorobenzylidene)amino]-2-(pyrrolidin-1-ylmethyl).quinazolin-4(3H)-one]	12 ± 0.08	–	13 ± 0.14	–	17 ± 0.26	–	–	–	13 ± 0.29	500 (≈ 1.36 mM)	–	–	10000 ± 500 (≈ 27.3 mM)	93.5 ± 1.54	138	2000 ± 140 (≈ 5.45 mM)	1500 (≈ 4.09 mM)	MIC, S. aureus ATCC 6538 (S. aureus ATCC 6538 [8]): 500 ± 0 µg/mL (≈ 1.36 mM)
COc1ccc(C=Nn2c(CN3CCCC3)nc3ccccc3c2=O)cc1 [Compound 18, 3-[(4-Methoxybenzylidene)amino]-2-(pyrrolidin-1-ylmethyl)quinazolin-4(3H)-one]	14 ± 0.21	16 ± 0.31	17 ± 0.3	18 ± 0.2	–	–	–	–	13 ± 0.14	2500 (≈ 6.9 mM)	1500 ± 290 (≈ 4.14 mM)	2000 (≈ 5.52 mM)	10000 ± 290 (≈ 27.6 mM)	87.2 ± 2.34	118 to 120	2500 ± 290 (≈ 6.9 mM)	–	–
COc1cc(C=Nn2c(CN3CCCC3)nc3ccccc3c2=O)cc(OC)c1OC [Compound 19, 2-(Pyrrolidin-1-ylmethyl)-3-[(3,4,5-trimethoxybenzylidene)amino]quinazolin-4(3H)-one]	–	14 ± 0.31	17 ± 0.22	18 ± 0.24	16 ± 0.18	54.15 ± 4.00	55.93 ± 3.31	63.79 ± 2.70	–	–	1000 ± 290 (≈ 2.37 mM)	1000 ± 290 (≈ 2.37 mM)	–	92.3 ± 3.37	166	10000 ± 500 (≈ 23.7 mM)	150 (≈ 0.355 mM)	MIC, P. aeruginosa ATCC 27953 (P. aeruginosa ATCC 27953 [13]): 150 ± 60 µg/mL (≈ 0.355 mM); IC50 (P. aeruginosa ATCC 27953 [14]): 3.55 µM and 1.5 µg/mL; effect on hydrophobicity index (CSH) (P. aeruginosa ATCC 27953 [15]): no evident effect on CSH; change in twitching zone diameter [16]: 30%
COc1ccc(C=Nn2c(CN3CCOCC3)nc3ccccc3c2=O)cc1 [Compound 30, 3-[(4-Methoxylbenzylidene)amino]-2-(morpholinomethyl)quinazolin-4(3H)-one]	12 ± 0.12	–	–	14 ± 0.15	–	–	–	–	–	–	–	–	–	–	138	–	–	–
